From ChEMBL document CHEMBL4118101 (Bioorg Med Chem, 2018)
Values after ≈ are worked out from the molar mass of the structure shown.

Experiments:
Cryptococcus neoformans [1] = assay: Antifungal activity against Cryptococcus neoformans isolate CN2 measured after 48 hrs by CLSI M27-A3 protocol based method; format: functional
Candida albicans [2] = assay: Antifungal activity against Candida albicans ATCC 10231 measured after 48 hrs by CLSI M27-A3 protocol based method; format: functional; details: ATCC 10231, 48 h
Candida albicans [3] = assay: Antifungal activity against Candida albicans ATCC 64124 measured after 48 hrs by CLSI M27-A3 protocol based method; format: functional
Candida albicans [4] = assay: Antifungal activity against fluconazole/ITC-susceptible Candida albicans ATCC MYA-2876 measured after 48 hrs by CLSI M27-A3 protocol based method; format: functional; details: for MIC: Candida albicans, ATCC MYA-2876, 48 h
Candida albicans [5] = assay: Antifungal activity against fluconazole/ITC-resistant Candida albicans ATCC 90819 measured after 48 hrs by CLSI M27-A3 protocol based method; format: functional
Candida albicans [6] = assay: Antifungal activity against fluconazole/ITC-susceptible Candida albicans ATCC MYA-2310 measured after 48 hrs by CLSI M27-A3 protocol based method; format: functional
Candida albicans [7] = assay: Antifungal activity against fluconazole/ITC-resistant Candida albicans ATCC MYA-1237 measured after 48 hrs by CLSI M27-A3 protocol based method; format: functional; details: Candida albicans, ATCC MYA-1237, 48 h; read-out: MIC
Candida albicans [8] = assay: Antifungal activity against fluconazole/ITC-resistant Candida albicans ATCC MYA-1003 measured after 48 hrs by CLSI M27-A3 protocol based method; format: functional; details: Candida albicans, ATCC MYA-1003, 48 h; read-out: MIC
Nakaseomyces glabratus [9] = assay: Antifungal activity against Candida glabrata ATCC 2001 measured after 48 hrs by CLSI M27-A3 protocol based method; format: functional, CBS 138
Pichia kudriavzevii = assay: Antifungal activity against Candida krusei ATCC 6258 measured after 48 hrs by CLSI M27-A3 protocol based method; format: functional; details: for MIC: Pichia kudriavzevii, ATCC 6258, 48 h
Candida parapsilosis [10] = assay: Antifungal activity against Candida parapsilosis ATCC 22019 measured after 48 hrs by CLSI M27-A3 protocol based method; format: functional; details: for MIC: Lodderomyces parapsilosis, ATCC 22019, 48 h
Aspergillus nidulans = assay: Antifungal activity against Aspergillus nidulans ATCC 38163 measured after 48 hrs by CLSI M38-A2 protocol based method; format: functional; details: ATCC 38163, 48 h
Aspergillus flavus = assay: Antifungal activity against Aspergillus flavus ATCC MYA-3631 measured after 48 hrs by CLSI M38-A2 protocol based method; format: functional; details: ATCC MYA-3631, 48 h
Aspergillus terreus = assay: Antifungal activity against Aspergillus terreus ATCC MYA-3633 measured after 48 hrs by CLSI M38-A2 protocol based method; format: functional; details: ATCC MYA-3633, 48 h
Nakaseomyces glabratus [11] = assay: Antifungal activity against Candida glabrata isolate CG1 measured after 48 hrs by CLSI M27-A3 protocol based method; format: functional
Nakaseomyces glabratus [12] = assay: Antifungal activity against Candida glabrata isolate CG2 measured after 48 hrs by CLSI M27-A3 protocol based method; format: functional
Nakaseomyces glabratus [13] = assay: Antifungal activity against Candida glabrata isolate CG3 measured after 48 hrs by CLSI M27-A3 protocol based method; format: functional
Candida parapsilosis [14] = assay: Antifungal activity against Candida parapsilosis isolate CP1 measured after 48 hrs by CLSI M27-A3 protocol based method; format: functional; details: for MIC: Lodderomyces parapsilosis, isolate CP1, 48 h
Candida parapsilosis [15] = assay: Antifungal activity against Candida parapsilosis isolate CP2 measured after 48 hrs by CLSI M27-A3 protocol based method; format: functional; details: for MIC: Lodderomyces parapsilosis, isolate CP2, 48 h
Cryptococcus neoformans [16] = assay: Antifungal activity against Cryptococcus neoformans isolate CN1 measured after 48 hrs by CLSI M27-A3 protocol based method; format: functional; details: isolate CN1, 48 h
Cryptococcus neoformans [17] = assay: Antifungal activity against Cryptococcus neoformans isolate CN3 measured after 48 hrs by CLSI M27-A3 protocol based method; format: functional
Candida parapsilosis [18] = assay: Antifungal activity against Candida parapsilosis isolate CP3 measured after 48 hrs by CLSI M27-A3 protocol based method; format: functional; details: for MIC: Lodderomyces parapsilosis, isolate CP3, 48 h
Candida albicans [19] = assay: Antifungal activity against Candida albicans ATCC 10231 measured after 48 hrs in presence of 10% FBS by CLSI M27-A3 protocol based method; format: functional; details: Candida albicans, ATCC 10231, 48 h
[20] = Cryptococcus neoformans, isolate CN2, 48 h, read-out: MIC
[21] = Candida albicans, ATCC 64124, 48 h, read-out: MIC
[22] = Candida albicans, ATCC 90819, 48 h, read-out: MIC
[23] = Candida albicans, ATCC MYA-2310, 48 h, read-out: MIC
[24] = Nakaseomyces glabratus, CBS 138, 48 h, read-out: MIC
[25] = Nakaseomyces glabratus, 48 h, read-out: MIC
[26] = Nakaseomyces glabratus, isolate CG2, 48 h, read-out: MIC
[27] = Cryptococcus neoformans, isolate CN3, 48 h, read-out: MIC

Structure (SMILES)	MIC (Cryptococcus neoformans [1]; [20]) [µM]	MIC (Candida albicans [2]) [µM]	MIC (Candida albicans [3]; [21]) [µM]	MIC (Candida albicans [4]) [µM]	MIC (Candida albicans [5]; [22]) [µM]	MIC (Candida albicans [6]; [23]) [µM]	MIC (Candida albicans [7]) [µM]	MIC (Candida albicans [8]) [µM]	MIC (Nakaseomyces glabratus [9]; [24]) [µM]	MIC (Pichia kudriavzevii) [µM]	MIC (Candida parapsilosis [10]) [µM]	MIC (Aspergillus nidulans) [µM]	MIC (Aspergillus flavus) [µM]	MIC (Aspergillus terreus) [µM]	MIC (Nakaseomyces glabratus [11]; [25]) [µM]	MIC (Nakaseomyces glabratus [12]; [26]) [µM]	MIC (Nakaseomyces glabratus [13]; [25]) [µM]	MIC (Candida parapsilosis [14]) [µM]	MIC (Candida parapsilosis [15]) [µM]	MIC (Cryptococcus neoformans [16]) [µM]	also measured
CC[C@H](C)C[C@H](C)CCCCCCCCC(=O)N[C@H]1C[C@@H](O)[C@@H](NCCN)NC(=O)[C@@H]2[C@@H](O)CCN2C(=O)[C@H]([C@H](O)CCN)NC(=O)[C@H]([C@H](O)[C@@H](O)c2ccc(O)cc2)NC(=O)[C@@H]2C[C@@H](O)CN2C(=O)[C@H]([C@@H](C)O)NC1=O [CASPOFUNGIN]	25.8 (≈ 28.2 µg/mL)	0.8 (≈ 0.875 µg/mL)	0.2 (≈ 0.219 µg/mL)	0.05 (≈ 0.0547 µg/mL)	0.1 (≈ 0.109 µg/mL)	0.1 (≈ 0.109 µg/mL)	0.2 (≈ 0.219 µg/mL)	0.4 (≈ 0.437 µg/mL)	0.05 (≈ 0.0547 µg/mL)	0.4 (≈ 0.437 µg/mL)	1.6 (≈ 1.75 µg/mL)	> 25.8	> 25.8	> 25.8	1.6 (≈ 1.75 µg/mL)	0.2 (≈ 0.219 µg/mL)	0.8 (≈ 0.875 µg/mL)	0.4 (≈ 0.437 µg/mL)	0.4 (≈ 0.437 µg/mL)	12.9 (≈ 14.1 µg/mL)	MIC (Cryptococcus neoformans [17]; [27]): 12.9 µM (≈ 14.1 µg/mL); MIC (Candida parapsilosis [18]): 0.4 µM (≈ 0.437 µg/mL)
C[C@@H]1[C@H](O)[C@@H](C)/C=C/C=C/C=C/C=C/C=C/C=C/C=C/[C@H](O[C@@H]2O[C@H](C)[C@@H](O)[C@H](N)[C@@H]2O)C[C@@H]2O[C@](O)(C[C@@H](O)C[C@@H](O)[C@H](O)CC[C@@H](O)C[C@@H](O)CC(=O)O[C@H]1C)C[C@H](O)[C@H]2C(=O)O [AMPHOTERICIN B]	–	–	–	2.1 (≈ 1.94 µg/mL)	1.1 (≈ 1.02 µg/mL)	2.1 (≈ 1.94 µg/mL)	–	–	2.1 (≈ 1.94 µg/mL)	–	2.1 (≈ 1.94 µg/mL)	–	–	–	–	–	–	–	–	–	MIC (Candida albicans [19]): 7.8 µg/mL
OC(Cn1cncn1)(Cn1cncn1)c1ccc(F)cc1F [FLUCONAZOLE]	–	–	–	–	–	–	–	–	–	–	–	–	–	–	–	–	–	–	–	–	MIC (Cryptococcus neoformans [1]): >102.1 µM; MIC (Candida albicans [3]): >408.1 µM; MIC=<50 (Candida albicans [4]): 50.9 µM (≈ 15.6 µg/mL); MIC (Candida albicans [5]): >408.1 µM; MIC (Candida albicans [6]): >408.1 µM; MIC (Nakaseomyces glabratus [9]): >=102.2 - 204.1 uM; MIC=<50 (Pichia kudriavzevii): >102.2 µM; MIC=<50 (Candida parapsilosis [10]): 6.4 µM (≈ 1.96 µg/mL); MIC (Nakaseomyces glabratus [11]): >102.1 µM; MIC (Nakaseomyces glabratus [12]): >102.1 µM; MIC (Nakaseomyces glabratus [13]): >102.1 µM; MIC=<50 (Candida parapsilosis [14]): 3.2 µM (≈ 0.98 µg/mL); MIC=<50 (Candida parapsilosis [15]): 3.2 µM (≈ 0.98 µg/mL); MIC (Cryptococcus neoformans [17]): >102.1 µM; MIC=<50 (Candida parapsilosis [18]): 3.2 µM (≈ 0.98 µg/mL)
CCCCCOCCCCCCNCC(O)(Cn1cncn1)c1ccc(F)cc1F (configuration not stated)	4.6 (≈ 1.95 µg/mL)	9.2 (≈ 3.91 µg/mL)	> 73.7	73.7 (≈ 31.3 µg/mL)	9.2 (≈ 3.91 µg/mL)	36.7 (≈ 15.6 µg/mL)	9.2 (≈ 3.91 µg/mL)	18.4 (≈ 7.81 µg/mL)	9.2 to 36.7 (≈ 3.91 to 15.6 µg/mL)	4.6 (≈ 1.95 µg/mL)	0.57 (≈ 0.242 µg/mL)	18.4 (≈ 7.81 µg/mL)	> 73.7	73.7 (≈ 31.3 µg/mL)	36.7 (≈ 15.6 µg/mL)	4.6 (≈ 1.95 µg/mL)	73.7 (≈ 31.3 µg/mL)	0.28 (≈ 0.119 µg/mL)	0.28 (≈ 0.119 µg/mL)	1.1 (≈ 0.467 µg/mL)	MIC (Cryptococcus neoformans [17]; [27]): 4.6 µM (≈ 1.95 µg/mL); MIC (Candida parapsilosis [18]): 0.28 µM (≈ 0.119 µg/mL)
OC(CNC1CCCCCCC1)(Cn1cncn1)c1ccc(F)cc1F (configuration not stated)	> 85.8	85.8 (≈ 31.3 µg/mL)	85.8 (≈ 31.3 µg/mL)	> 85.8	85.8 (≈ 31.3 µg/mL)	10.7 to 85.8 (≈ 3.9 to 31.3 µg/mL)	85.8 (≈ 31.3 µg/mL)	> 85.8	85.8 (≈ 31.3 µg/mL)	85.8 (≈ 31.3 µg/mL)	10.7 (≈ 3.9 µg/mL)	> 85.8	85.8 (≈ 31.3 µg/mL)	> 85.8	85.8 (≈ 31.3 µg/mL)	42.8 (≈ 15.6 µg/mL)	85.8 (≈ 31.3 µg/mL)	2.7 (≈ 0.984 µg/mL)	2.7 (≈ 0.984 µg/mL)	21.4 (≈ 7.8 µg/mL)	MIC (Cryptococcus neoformans [17]; [27]): 42.8 µM (≈ 15.6 µg/mL); MIC (Candida parapsilosis [18]): 5.4 µM (≈ 1.97 µg/mL)
